Source: publication PMC11705230, “Discovery and Synthetic Applications of a NAD(P)H-Dependent Reductive Aminase from Rhodococcus erythropolis” (ACS Catalysis, 2024)

Biological target: T1, RytRedAm (Rhodococcus erythropolis, UniProt Z9GXG8TLZ1)
T1 construct: recombinant, N-terminal His-tag in pET-28a(+), E. coli BL21(DE3); Ni-NTA purified; homodimer; printed residues R35, I69, T90, D166, Y235
T1 sequence (Z9GXG8TLZ1 1-291): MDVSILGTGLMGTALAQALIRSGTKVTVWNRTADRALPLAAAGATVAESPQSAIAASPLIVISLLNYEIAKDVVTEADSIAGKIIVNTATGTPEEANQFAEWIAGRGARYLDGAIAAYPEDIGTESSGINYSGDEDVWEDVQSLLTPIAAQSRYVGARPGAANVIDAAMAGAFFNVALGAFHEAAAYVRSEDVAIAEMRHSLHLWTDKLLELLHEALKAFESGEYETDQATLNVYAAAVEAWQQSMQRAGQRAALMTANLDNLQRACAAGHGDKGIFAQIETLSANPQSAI
Assay: X-ray crystallography
Format: binding
Conditions: cocrystallized with NADP+, nicotinamide ring and ribose density absent; cofactor site; pH 7.0

Nc1ncnc2c1ncn2[C@@H]1O[C@H](COP(=O)(O)OP(=O)(O)O)[C@@H](O)[C@H]1OP(=O)(O)O [ADP-2RP]
X-ray crystallography: crystals obtained with the latter gave an ADP-2′-ribose phosphate (ADP-2RP) complex
